Measurements: patent US20030229048A1, “Methods and compositions for inhibition of irritation by disaccharide and metal ions” (priority 2002, published 2003)

Legend:
Type in all cases: cell-based, Human
[1] = system: IL-1α; assay: IL-1α release (ELISA) in keratinocyte cells stimulated with methyl salicylate; details: for inhibition of MS induced IL-1α release: summary statement
Experimental: (§1) Reagents methyl salicylate, ethacrynic acid, trehalose A, B, and C were obtained from Sigma-Aldrich (St. Louis, Mo.). Trehaloses were dissolved in keratinocyte media. Methyl salicylate was diluted in keratinocyte media. Ethacrynic acid was dissolved in DMSO. Keratinocyte cells were grown to 100% confluency as per the instructions given by ATCC. Then the cells were trypsinized to dislodge cells and spun at 3000 rpm for 3 min. The supernatant was aspirated and the cells were re-suspended in fresh media at a density of 1.0×10^6 cells per mL. The cell suspension was the pipetted into a 96-well plate (200 ul of per well) and cells were incubated overnight at 37° C. The next day morning media was aspirated, and 100 uL of fresh medium containing methyl salicylate (2%) was added to all the wells except for the (−) control wells. No MS was included in the (−) control wells. Then 100 uL of medium containing the various test reagents were added to the wells so that the final concentrations were as indicated in FIGS. 2-7. The 96-well plate was then incubated. After incubation for four hours at 36° C., the supernatant from the wells was transferred to centrifuge tubes and centrifuged to remove the cell debris. Then the presence of IL-1α was determined using ELISA kit (R&D systems, Inc.) as per the manufacturer's specifications. The cells remaining in the wells were treated with pre-warmed media containing MTT solution and incubated for four hours. Then the formazan product (metabolic product of MTT) in the wells was solubilized and the absorbance was measured using a plate reader.
Human keratinocytes were stimulated with MS in the absence or the presence of trehalose compounds, to find an optimal concentration of trehalose at which IL- 1α production is reduced by half compared to the positive control.

[2] = system: IL-1α; assay: as above; details: substance alone; earlier work of the applicant
[3] = system: Keratinocyte cells; assay: MTT assay, cytotoxicity / cell viability of keratinocyte cells
Experimental: as §1, with “After incubation for four hours at 36° C., the supernatant from the wells was transferred to centrifuge tubes and centrifuged to remove the cell debris.” left out, “The cells remaining in the wells were treated with pre-warmed media containing MTT solution and incubated for four hours.” left out, “reader. […]” for “reader.”

With `C=C(CC)C(=O)c1ccc(OCC(=O)O)c(Cl)c1Cl` [Ethacrynic Acid, reference compound] the “inhibition of MS induced IL-1α release” value ([1]; concentration not given) was “inhibited the IL-1α release by MS” and the “reduction in IL-1α levels compared to MS 1% (positive control)” value (“reduction … to MS 1% (positive control)” below) ([1]; test substance at 0.16%, FIG. 2) was “over 50%”.
`COC(=O)c1ccccc1O` [MS, Methyl Salicylate] was tested, and the “release of primary cytokines, especially IL-1α, in epidermal keratinocytes” value [2] was “stimulates release”.
In the case of `OC[C@H]1O[C@H](O[C@H]2O[C@H](CO)[C@@H](O)[C@H](O)[C@H]2O)[C@H](O)[C@@H](O)[C@@H]1O` [Trehalose A, trehalose], the “effect on IL-1α levels, MS stimulated” value ([1]; low concentrations of 0.1-2.5%) is reported as “neither trehalose A nor B showed any effect”, the “inhibition of MS induced IL-1α release” value ([1]; concentration not stated, listed as trehalose A) is reported as “capable of inhibiting MS induced IL-1α release” and the “reduction … to MS 1% (positive control)” value ([1]; test substance at 2.5%, FIG. 2) is reported as “no effect”. The “reduction … to MS 1% (positive control)” value ([1]; test substance at 5%, FIG. 2) was “much lower levels of reduction”.
In the case of `OC[C@H]1O[C@H](O[C@H]2O[C@H](CO)[C@@H](O)[C@H](O)[C@H]2O)[C@H](O)[C@@H](O)[C@@H]1O` [Trehalose B, trehalose], the “effect on IL-1α levels in Keratinocyte cells stimulated by 1% Methyl Salicylate” value (“effect on IL-1α levels … by 1% Methyl Salicylate” for short) ([1]; FIG. 5, lower concentrations) is reported as “no effect”, the “effect on IL-1α levels … by 1% Methyl Salicylate” value ([1]; any concentrations that were tested, FIGS. 2 and 3) is reported as “no effect” and the “effect on IL-1α levels compared to MS 1% (positive control)” value ([1]; at any of 2.5%, 5%, 10%, FIG. 2) is reported as “no effect”. The “inhibition of MS induced IL-1α release” value ([1]; concentration not stated, listed as trehalose B) was “no effect”.
In the case of `OC[C@H]1O[C@H](O[C@H]2O[C@H](CO)[C@@H](O)[C@H](O)[C@H]2O)[C@H](O)[C@@H](O)[C@@H]1O` [Trehalose C, trehalose], the “inhibition of MS induced IL-1α release” value ([1]; concentration not stated, listed as trehalose C) is reported as “no effect”.
In the case of `[O]=[Zn]` [Zinc Oxide], the “effect on IL-1α levels … by 1% Methyl Salicylate” value ([1]; FIG. 5, lower concentrations) is reported as “significant dose dependent decrease”, the “IL-1α levels in Keratinocyte cells stimulated with 1% Methyl Salicylate” value ([1]; concentration levels 10%-1.25%, FIG. 4) is reported as “large decrease” and the “MS stimulated IL-1α levels” value ([1]; high concentrations, FIG. 4) is reported as “dramatic reduction”. For the same compound, the “inhibition of MS induced IL-1α release” value ([1]; concentration not given) was “able to block MS induced IL-1α production as effectively as trehalose A”, the “reduction in IL-1α concentrations induced by Methyl Salicylate” value ([1]; test substance at 0.000125%, FIG. 5) was “greater than 50%” and the “MTT concentration levels in Keratinocyte cells (cell viability)” value ([3]; concentrations at which ZnO inhibited MS stimulated IL-1α release, FIG. 7) was “no effect”. For the same compound, the “state of the cells” value ([3]; high concentrations of zinc oxide, FIG. 4 experiment) was “the cells were not active”.
